The results in this text go back to ChEMBL document CHEMBL3751832, “Synthesis, in vitro and computational studies of 1,4-disubstituted 1,2,3-triazoles as potential α-glucosidase inhibitors” (Bioorg Med Chem Lett, 2016).

Where a name gives a salt, the structure may show the parent alone.

The assay can be described thus: Inhibition of yeast type-3 alpha-glucosidase using p-nitrophenyl-alpha-D-glucopyranoside as substrate after 30 mins. Also on record: species or system Saccharomyces cerevisiae.
What is called IC50 is the concentration at which inhibition is half-maximal. Low values mean greater potency in that assay, high ones weaker potency in that assay. `O=[N+]([O-])c1ccc(-n2cc(C3(O)CCCCC3)nn2)cc1` registered an IC50 of 320 µM.

As for `Clc1ccccc1-n1cc(-c2ccccc2)nn1`, the IC50 worked out at 57.2 µM.

Molecule `OC[C@H]1NC[C@H](O)[C@@H](O)[C@@H]1O` [DUVOGLUSTAT HYDROCHLORIDE] yielded an IC50 of 3.49 µM. Against the preceding molecule, the IC50 is about 16-fold lower.

`CC(=O)c1cccc(-n2cc(-c3ccccc3)nn2)c1` registered an IC50 of 265 µM.

Regarding `O=[N+]([O-])c1ccc(-n2cc(-c3ccccc3)nn2)cc1`, the 50% inhibitory concentration (IC50) was 235 µM.

Consider `COC(=O)Cn1cc(-c2ccccc2)nn1`, for which the 50% inhibitory concentration (IC50) is 255 µM.

Turning to `OC1(c2cn(-c3ccccc3Cl)nn2)CCCCC1`, it took 370 µM to reach half-maximal inhibition (IC50).

Regarding `N#Cc1cc([N+](=O)[O-])ccc1-n1cc(C2(O)CCCCC2)nn1`, 49.7 µM corresponded to half-maximal inhibition (IC50).

The molecule `COc1cccc(-n2cc(C3(O)CCCCC3)nn2)c1` returned an IC50 of 245 µM.

`CC(=O)c1cccc(-n2cc(C3(O)CCCCC3)nn2)c1` showed an IC50 of 320 µM.

`CC(=O)c1ccccc1-n1cc(-c2ccccc2)nn1`: the IC50 was 313 µM.
